The values that follow come from patent US9718788B2, “Heteroaryl compounds useful as inhibitors of E1 activating enzymes” (MILLENNIUM PHARMACEUTICALS, INC., priority 2006, dated 2017).

This test addresses T1, recombinant human NAE enzyme (Homo sapiens, UniProt Q8TBC4).
T1 construct: His (N); made in house; host or cells: Sf9 insect cells (baculovirus, Bac-to-Bac)
T1 sequence (Q8TBC4 1-463): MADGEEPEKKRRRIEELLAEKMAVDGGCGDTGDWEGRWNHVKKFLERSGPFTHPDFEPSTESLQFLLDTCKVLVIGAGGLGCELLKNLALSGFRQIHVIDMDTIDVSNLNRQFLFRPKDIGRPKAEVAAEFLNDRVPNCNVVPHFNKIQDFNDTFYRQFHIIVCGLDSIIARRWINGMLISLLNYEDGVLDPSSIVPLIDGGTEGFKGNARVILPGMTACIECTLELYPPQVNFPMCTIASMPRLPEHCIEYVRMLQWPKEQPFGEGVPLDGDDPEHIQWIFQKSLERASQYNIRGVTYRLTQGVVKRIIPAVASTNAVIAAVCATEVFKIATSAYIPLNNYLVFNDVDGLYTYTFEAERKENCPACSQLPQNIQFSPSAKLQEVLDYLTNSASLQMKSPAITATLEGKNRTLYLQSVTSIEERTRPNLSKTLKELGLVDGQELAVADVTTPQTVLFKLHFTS
T1 sequence (Q13564 1-534 partner): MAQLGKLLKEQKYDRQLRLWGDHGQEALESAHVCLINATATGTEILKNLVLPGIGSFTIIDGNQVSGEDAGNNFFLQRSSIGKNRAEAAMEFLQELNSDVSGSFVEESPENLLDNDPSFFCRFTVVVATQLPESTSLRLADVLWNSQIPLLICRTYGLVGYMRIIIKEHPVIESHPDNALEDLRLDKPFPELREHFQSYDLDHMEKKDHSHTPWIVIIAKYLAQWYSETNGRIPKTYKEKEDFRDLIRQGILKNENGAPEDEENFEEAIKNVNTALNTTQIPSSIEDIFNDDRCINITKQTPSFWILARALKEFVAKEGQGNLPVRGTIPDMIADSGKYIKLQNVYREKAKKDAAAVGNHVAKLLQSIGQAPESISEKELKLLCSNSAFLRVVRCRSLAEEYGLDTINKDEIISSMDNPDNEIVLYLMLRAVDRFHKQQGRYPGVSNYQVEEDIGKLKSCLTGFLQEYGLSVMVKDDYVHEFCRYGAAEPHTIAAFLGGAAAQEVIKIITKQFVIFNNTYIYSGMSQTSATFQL
Briefly: Nedd8-Activating Enzyme (NAE) HTRF Assay. In kind it is biochemical. The conditions noted are these: 20 μM ATP. Summed up: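 Recombinant human NAE (NAEα/His-NAEβ from Sf9 cells) at 0.20 nM with 20 μM ATP, 0.01 μM Ubc12-GST and 0.075 μM Nedd8-Flag in HEPES pH 7.5, 105 min at 24° C. EDTA stop; Eu-anti-FLAG/APC-anti-GST HTRF read after 1 h.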

SMILES strings stand for the structures. Bounds are passed on as bounds.

`CO[C@@H]1CC(C)(C)c2ccccc2[C@@H]1Nc1cc(O[C@@H]2C[C@@H](COS(N)(=O)=O)[C@@H](O)C2)ncn1` [Compound I-151, {(1S,2S,4R)-2-hydroxy-4-[(6-{[(1S,2R)-2-methoxy-4,4-dimethyl-1,2,3,4-tetrahydronaphthalen-1-yl]amino}pyrimidin-4-yl)oxy]cyclopentyl}methyl sulfamate]: the half-maximal inhibitory concentration (IC50) (bound given in nM) was at most 500 nM.

For `NS(=O)(=O)OC[C@H]1CC[C@H](Oc2ncnc3[nH]c(-c4cccc5ccccc45)nc23)C1` [Compound I-152, ((1S,3S)-3-{[8-(1-naphthyl)-9H-purin-6-yl]oxy}cyclopentyl)methyl sulfamate], the concentration for half-maximal inhibition (IC50) is over 500 nM (bound given in nM) and under 10000 nM (bound given in μM).

Take `NS(=O)(=O)OC[C@@H]1C[C@@H](Nc2ncnc(N[C@H]3CCc4ccccc43)n2)C[C@@H]1O` [Compound I-153, [(1S,2S,4R)-4-({4-[(1S)-2,3-dihydro-1H-inden-1-ylamino}-1,3,5-triazin-2-yl}amino)-2-hydroxycyclopentyl]methyl sulfamate]: the concentration for half-maximal inhibition (IC50) (bound given in nM) is at most 500 nM.

As a reminder, the IC50 is the concentration at which inhibition is half-maximal.
